Source: patent US9770397B2, “Oxidative dyeing composition” (KAO GERMANY GMBH, priority 2012, dated 2017)

System: scalp
Experiment: monadic use test for scalp compatibility and mildness
Design: species or system consumers
Conditions: in vivo
Method: The above compositions were tested in a monadic use test for scalp compatibility and mildness. Both compositions were used to dye hair of 30 consumers each having shoulder length hair. The composition was mixed with a composition comprising 6% hydrogen peroxide at a weight ratio of 1 to 1 and applied onto hair and processed for 30 min at a temperature of 40° C. and rinsed off. It was observed that both composition colour hair in the same way to the same colour direction. The following observations were made on scalp irritation.

**Q.** How did the “mildness and scalp compatibility of hair dyeing composition (conclusion in words)” value turn out when `O=C(CCc1ccc(O)cc1)Nc1ccccc1C(=O)O` [hydroxyphenyl propamidobenzoic acid, Hydroxyphenyl propamidobenzoic acid] was run?
**A.** The value was “improved mildness of hair dyeing composition and improved scalp compatibility”.
